Test results from EPA's ToxValDB 9.5 (doi:10.2903/j.efsa.2013.3181).
Values after ≈ are worked out from the molar mass of the structure shown.

Assays:
Colinus virginianus = settings: for LD50: acute, oral, mortality
Anas platyrhynchos = settings: reproductive
Daphnia magna = settings: chronic/long-term; duration: 21 days; reproduction
Pimephales promelas = settings: chronic/long-term; duration: 28 days; body weight
Mus musculus = settings: acute; oral; F; mortality
Lepomis macrochirus = settings: acute; duration: 96 hours; mortality
Bibionidae = settings: chronic/long-term; duration: 28 days; no effects
Apis mellifera = settings: acute; duration: 48 hours; oral; unspecified; mortality
Canidae = settings: chronic; duration: 1 years; oral; Dog Other; clinical signs
Typhlodromus pyri = test: LR50; higher = less toxic; settings: chronic/long-term; duration: 7 days; mortality
Aphidius rhopalosiphi = test: LR50; higher = less toxic; settings: acute; duration: 48 hours; mortality

CC(C)C1CCC(Cc2ccc(Cl)cc2)C1(O)Cn1cncn1 (stereo not drawn) [Ipconazole]
LD50 (Colinus virginianus; diet): > 300 mg/kg-day | LD50 (Colinus virginianus): 962 mg/kg | NOEL (Colinus virginianus; reproduction developmental): 4.3 mg/kg-day | LD50 (Rattus norvegicus; acute, oral, F, mortality): > 2000 mg/kg | NOAEL (Rattus norvegicus; developmental, development): 3 mg/kg-day | NOAEL (Rattus norvegicus; reproduction developmental, body weight): 8 mg/kg-day | LC50 (Tagia sp.; acute, duration: 14 days, mortality): 597 mg/kg | NOEC (Tagia sp.; chronic/long-term, duration: 8 weeks, reproduction): 0.78 mg/kg | NOEL (Anas platyrhynchos): 27.1 mg/kg-day | NOEC (Daphnia magna): 10.9 µg/L | NOEC (Pimephales promelas): 0.44 µg/L | LD50 (Mus musculus): 468 mg/kg | LC50 (Lepomis macrochirus): 1.3 µg/mL (≈ 3.89 µM) | NOEC (Bibionidae): 3.52 mg/L | LD50 (Apis mellifera): > 100 µg/piece | NOAEL (Canidae): 1.5 mg/kg-day | LR50 (Typhlodromus pyri): 17.4 g/ha | LR50 (Aphidius rhopalosiphi): 35.1 g/ha
